The results in this text go back to publication PMC10023780, “Insights into membrane association of the SMP domain of extended synaptotagmin” (Nature Communications, 2023).

Each structure is given as a SMILES string. Where a chain is given by its changes, count along the chain named.

The target in one experiment is T1, SMP of E-Syt3 (Homo sapiens, UniProt A0FGR9).
T1 construct: gene ESYT3; SMP domain alone, residues 113-304, His tag (pET-28a); full-length protein 886 residues
T1 sequence (A0FGR9 113-304): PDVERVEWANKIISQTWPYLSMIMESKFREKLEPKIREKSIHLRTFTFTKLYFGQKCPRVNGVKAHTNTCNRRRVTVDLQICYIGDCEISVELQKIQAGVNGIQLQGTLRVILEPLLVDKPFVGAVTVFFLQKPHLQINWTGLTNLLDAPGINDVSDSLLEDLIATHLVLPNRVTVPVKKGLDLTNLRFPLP
Put plainly: FRET dequenching lipid transfer between liposomes. The class given is biochemical. The settings on record: curved ER-like donor and PM-like acceptor liposomes, pH 7.4; labelled compound.

The target in a further experiment is T2, full-length E-Syt1 (Homo sapiens, UniProt Q9BSJ8).
T2 construct: gene ESYT1; full length, residues 1-1104, His-tagged (pCMV6-AN-His), Expi293 cells, detergent-purified, reconstituted in ER-like liposomes
T2 sequence (Q9BSJ8 1-1104): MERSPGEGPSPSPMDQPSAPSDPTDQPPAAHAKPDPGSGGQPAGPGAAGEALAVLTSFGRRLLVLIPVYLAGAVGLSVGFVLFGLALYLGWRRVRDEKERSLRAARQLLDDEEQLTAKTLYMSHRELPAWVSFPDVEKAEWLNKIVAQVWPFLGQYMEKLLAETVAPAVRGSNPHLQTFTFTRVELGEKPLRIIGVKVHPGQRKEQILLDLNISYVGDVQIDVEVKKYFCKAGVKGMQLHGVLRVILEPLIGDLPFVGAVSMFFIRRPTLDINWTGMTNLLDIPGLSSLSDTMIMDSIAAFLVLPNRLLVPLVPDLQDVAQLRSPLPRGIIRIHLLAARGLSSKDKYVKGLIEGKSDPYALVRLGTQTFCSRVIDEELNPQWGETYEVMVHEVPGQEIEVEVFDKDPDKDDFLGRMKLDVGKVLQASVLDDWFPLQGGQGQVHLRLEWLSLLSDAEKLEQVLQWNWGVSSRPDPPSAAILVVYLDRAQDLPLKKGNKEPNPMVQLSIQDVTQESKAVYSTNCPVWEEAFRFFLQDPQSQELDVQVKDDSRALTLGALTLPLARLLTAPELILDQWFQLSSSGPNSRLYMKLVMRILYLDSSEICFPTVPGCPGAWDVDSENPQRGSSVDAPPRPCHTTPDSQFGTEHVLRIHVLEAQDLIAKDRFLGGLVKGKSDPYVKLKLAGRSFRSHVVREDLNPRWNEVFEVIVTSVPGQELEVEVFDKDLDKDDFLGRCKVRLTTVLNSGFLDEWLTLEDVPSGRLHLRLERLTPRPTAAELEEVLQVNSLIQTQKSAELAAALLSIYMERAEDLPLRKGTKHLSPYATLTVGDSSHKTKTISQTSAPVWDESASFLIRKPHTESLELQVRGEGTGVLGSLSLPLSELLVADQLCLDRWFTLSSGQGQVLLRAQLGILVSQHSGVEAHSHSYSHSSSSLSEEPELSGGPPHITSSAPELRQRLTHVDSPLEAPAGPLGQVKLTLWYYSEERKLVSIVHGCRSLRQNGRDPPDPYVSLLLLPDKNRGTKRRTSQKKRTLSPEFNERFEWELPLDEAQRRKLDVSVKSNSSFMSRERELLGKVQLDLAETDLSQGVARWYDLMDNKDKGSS
The experiment in a line: FRET dequenching lipid transfer from proteoliposomes. Format: biochemical. The settings on record: Ca2+ present, 40-nm sorted ER-like proteoliposomes, 800-nm PM-like acceptors, pH 7.4, room temperature; labelled compound.

A further experiment addresses T3, E-Syt1cyto (Homo sapiens, UniProt Q9BSJ8).
T3 construct: gene ESYT1; cytosolic region, residues 93-1104, N-terminal hairpin region replaced by His tag (pCMV6-AN-His)
T3 sequence (Q9BSJ8 93-1104): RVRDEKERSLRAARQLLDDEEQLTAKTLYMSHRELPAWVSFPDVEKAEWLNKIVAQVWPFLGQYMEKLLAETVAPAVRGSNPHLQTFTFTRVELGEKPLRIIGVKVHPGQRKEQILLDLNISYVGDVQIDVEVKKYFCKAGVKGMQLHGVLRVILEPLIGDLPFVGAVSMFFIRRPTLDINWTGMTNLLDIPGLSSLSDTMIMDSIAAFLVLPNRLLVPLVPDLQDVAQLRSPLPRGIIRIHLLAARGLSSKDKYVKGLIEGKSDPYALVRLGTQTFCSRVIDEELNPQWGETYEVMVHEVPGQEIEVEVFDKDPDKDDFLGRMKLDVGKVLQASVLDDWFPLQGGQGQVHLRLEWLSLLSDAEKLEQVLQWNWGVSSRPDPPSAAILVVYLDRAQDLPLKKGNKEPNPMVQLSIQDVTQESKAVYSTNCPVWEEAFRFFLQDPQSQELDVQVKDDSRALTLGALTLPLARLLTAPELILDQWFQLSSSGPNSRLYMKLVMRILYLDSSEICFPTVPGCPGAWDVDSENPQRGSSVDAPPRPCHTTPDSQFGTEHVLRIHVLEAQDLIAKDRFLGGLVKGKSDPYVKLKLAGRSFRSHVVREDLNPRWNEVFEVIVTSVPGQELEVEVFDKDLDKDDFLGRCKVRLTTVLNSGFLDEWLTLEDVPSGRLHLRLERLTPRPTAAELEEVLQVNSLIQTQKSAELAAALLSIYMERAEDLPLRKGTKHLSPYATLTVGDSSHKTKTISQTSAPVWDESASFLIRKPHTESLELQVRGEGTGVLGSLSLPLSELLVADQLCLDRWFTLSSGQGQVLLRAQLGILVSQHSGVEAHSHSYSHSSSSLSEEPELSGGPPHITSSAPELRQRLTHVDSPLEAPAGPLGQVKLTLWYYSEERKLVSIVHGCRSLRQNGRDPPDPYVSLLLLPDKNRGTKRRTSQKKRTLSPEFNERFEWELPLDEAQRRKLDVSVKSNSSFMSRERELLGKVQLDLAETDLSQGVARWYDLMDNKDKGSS
Put plainly: FRET dequenching lipid transfer between liposomes. The settings on record: Ca2+ present, His tag on DGS-NTA(Ni) ER-like donor liposomes, PM-like acceptors, pH 7.4; labelled compound. The class given is biochemical.

The target in the next experiment is T4, SMP of E-Syt2 (Homo sapiens, UniProt A0FGR8).
T4 construct: gene ESYT2; SMP domain alone, residues 162-355, His tag (pET-28a), dimer
T4 sequence (A0FGR8 162-355 isoform A0FGR8-2): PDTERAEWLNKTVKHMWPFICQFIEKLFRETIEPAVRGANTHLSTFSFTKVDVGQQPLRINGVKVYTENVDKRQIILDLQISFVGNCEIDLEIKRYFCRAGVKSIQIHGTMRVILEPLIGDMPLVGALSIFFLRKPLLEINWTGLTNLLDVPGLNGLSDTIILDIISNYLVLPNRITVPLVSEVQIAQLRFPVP
The experiment in a line: FRET dequenching lipid transfer between liposomes. The class given is biochemical. To be noted: curved ER-like donor and PM-like acceptor liposomes, pH 7.4; labelled compound.

For experiment [1], the target named is T5, SMP domain of E-Syt1 (SMP) (Homo sapiens, UniProt Q9BSJ8).
T5 construct: gene ESYT1; SMP domain alone, residues 134-327, N-terminal His tag (pET-28a), dimer
T5 sequence (Q9BSJ8 134-327): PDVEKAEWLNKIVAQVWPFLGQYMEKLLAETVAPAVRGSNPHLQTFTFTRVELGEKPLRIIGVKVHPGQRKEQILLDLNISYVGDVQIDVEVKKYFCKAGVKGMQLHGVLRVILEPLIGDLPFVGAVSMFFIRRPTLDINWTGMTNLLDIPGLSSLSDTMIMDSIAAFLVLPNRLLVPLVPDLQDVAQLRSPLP
Put plainly: FRET dequenching lipid transfer between liposomes. Format: biochemical. The settings on record: 40-nm sorted ER-like donor and 800-nm PM-like acceptor liposomes, pH 7.4, 37 °C, Ca2+ not needed; Rhodamine-PE co-transferred; labelled compound.

For experiment [2], the target named is T6, SMP-C2AB of E-Syt1 (Homo sapiens, UniProt Q9BSJ8).
T6 construct: gene ESYT1; SMP-C2A-C2B fragment, residues 93-634, His-tagged (pCMV6-AN-His), Expi293 cells, Ni-NTA and gel filtration
T6 sequence (Q9BSJ8 93-634): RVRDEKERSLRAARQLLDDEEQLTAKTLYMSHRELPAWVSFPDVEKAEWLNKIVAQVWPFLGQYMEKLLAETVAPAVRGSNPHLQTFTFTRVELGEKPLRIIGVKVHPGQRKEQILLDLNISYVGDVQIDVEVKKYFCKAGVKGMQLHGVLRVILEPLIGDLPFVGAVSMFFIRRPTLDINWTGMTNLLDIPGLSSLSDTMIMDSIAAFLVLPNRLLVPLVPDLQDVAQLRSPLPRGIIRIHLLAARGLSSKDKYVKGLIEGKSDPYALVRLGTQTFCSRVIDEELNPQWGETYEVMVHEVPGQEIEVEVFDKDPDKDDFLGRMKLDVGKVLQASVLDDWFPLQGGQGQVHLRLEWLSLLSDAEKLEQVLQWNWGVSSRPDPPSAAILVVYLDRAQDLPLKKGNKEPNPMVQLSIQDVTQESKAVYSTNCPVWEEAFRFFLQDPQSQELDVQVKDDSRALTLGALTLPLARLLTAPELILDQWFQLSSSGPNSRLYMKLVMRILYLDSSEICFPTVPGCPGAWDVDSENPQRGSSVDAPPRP
The experiment in a line: native PAGE, NBD fluorescence of protein band. To be noted: protein 40 uM, 4 °C, 1 h; solubilized NBD-PE added in methanol; labelled compound. The class given is binding.

The target of experiment [3] is T7, SMP-C2AB of E-Syt1 (Homo sapiens, UniProt Q9BSJ8, V169W/L308W).
T7 construct: gene ESYT1; SMP-C2A-C2B fragment, residues 93-634, His-tagged (pCMV6-AN-His), Expi293 cells, Ni-NTA and gel filtration
T7 sequence (Q9BSJ8 93-634 V169W/L308W): T6 sequence (Q9BSJ8 93-634) with V77W, L216W
The experiment in a line: native PAGE, NBD fluorescence of protein band. The class given is binding. The settings on record: protein 40 uM, 4 °C, 1 h; solubilized NBD-PE added in methanol; lipid cavity blocked; labelled compound.

In experiment [4] the target is T8, SMP-C2AB of E-Syt1 (Homo sapiens, UniProt Q9BSJ8, K227E).
T8 construct: gene ESYT1; SMP-C2A-C2B fragment, residues 93-634, His-tagged (pCMV6-AN-His), Expi293 cells, Ni-NTA and gel filtration
T8 sequence (Q9BSJ8 93-634 K227E): T6 sequence (Q9BSJ8 93-634) with K135E
The experiment in a line: native PAGE, NBD fluorescence of protein band. Format: binding. To be noted: protein 40 uM, 4 °C, 1 h; solubilized NBD-PE added in methanol; labelled compound.

In the case of `CCCCCCCC/C=C\CCCCCCCC(=O)OC[C@H](COP(=O)(O)OCCNc1ccc([N+](=O)[O-])c2nonc12)OC(=O)CCCCCCC/C=C\CCCCCCCC` [NBD-PE, 1,2-dioleoyl-sn-glycero-3-phosphoethanolamine-N-(7-nitro-2-1,3-benzoxadiazol-4-yl)], the “FRET dequenching lipid transfer between liposomes” value on SMP of E-Syt3 is “SMP domains of E-Syt2 and E-Syt3 showed similar membrane curvature- and charge-facilitated lipid transfer”; on E-Syt1cyto it was “purified His-tagged E-Syt1cyto had comparable lipid transfer and membrane tethering levels as full-length E-Syt1”; at SMP of E-Syt2, “SMP domains of E-Syt2 and E-Syt3 showed similar membrane curvature- and charge-facilitated lipid transfer”; in experiment [1], 40-nm sorted ER-like liposomes produced a robust lipid transfer level. Further, on full-length E-Syt1, the “FRET dequenching lipid transfer from proteoliposomes” value is 40-nm sorted ER-like proteoliposomes dramatically accelerated the lipid transfer by E-Syt1. Moreover, the “native PAGE, NBD fluorescence of protein band” value on SMP-C2AB of E-Syt1 [2] is “solubilized NBD-PE was loaded onto purified WT protein and K227E mutant”; on SMP-C2AB of E-Syt1 [3] it was “block the hydrophobic cavity of the SMP domain (V169W/L308W) impaired lipid harboring”; at SMP-C2AB of E-Syt1 [4] it was “NBD-PE was loaded onto purified WT protein and K227E mutant at a similar level”.
